Tests used:
Test in all cases: c-Kit assay: Ba/F3 KIT mutant cell viability (Cell Titer-Glo, 72 hours)
Type in all cases: cell-based
Conditions in all cases: viability after 72 hours
[1] = target: T1, BAF3 FL KIT EX11DEL/D816H (Homo sapiens, UniProt P10721, D816H, cells depend on it, form not given)
T1 construct: BAF3 FL KIT EX11DEL/D816H
Method: (§1) Generation of DBa/F3 KIT Mutant Engineered Cell Lines
(§2) KIT cDNAs were synthesized by GenScript and cloned into the pLVX-IRES-Puro vector (Clontech). Viral particles were produced by transfecting pLVX-IRES-puro vectors containing KIT mutant genes into HEK293 cells (Invitrogen) using the Trans-Lentiviral ORF Packaging Kit (Thermo Scientific). 48 hours post-transfection, virus-containing supernatants were harvested and incubated for another 48-72 hours with parental Ba/F3 cells (DSMZ) in the presence of 10 ng/mL IL-3 (R&D Systems). Transduced Ba/F3 cells were then selected by IL-3 withdrawal and puromycin (0.5-1 μg/mL, Invitrogen).
(§3) Cell lines (e.g., EX11DEL, EX11DEL/D816H, EX11DEL/T670I, and EX11DEL/V654A) were plated into 384 well plates using RPMI 1640 supplemented with 10% FBS at densities that produced linear growth and incubated at 37° C. in 5% (v/v) CO2. Cells were treated with eight concentrations of compound over a 4-fold dilution (10 μM to 0.61 nM) and viability was assessed using Cell Titer-Glo assay (Promega) after 72 hours. Data were plotted as percent viability relative to vehicle-treated cells. Dose-responses curves were generated and used to calculate IC50 values.

[2] = target: T2, BAF3 FL KIT EX11DEL (Homo sapiens, UniProt P10721, cells depend on it, form not given)
T2 construct: BAF3 FL KIT EX11DEL
T2 sequence (P10721 with tags, fused parts or gaps DEL557-558): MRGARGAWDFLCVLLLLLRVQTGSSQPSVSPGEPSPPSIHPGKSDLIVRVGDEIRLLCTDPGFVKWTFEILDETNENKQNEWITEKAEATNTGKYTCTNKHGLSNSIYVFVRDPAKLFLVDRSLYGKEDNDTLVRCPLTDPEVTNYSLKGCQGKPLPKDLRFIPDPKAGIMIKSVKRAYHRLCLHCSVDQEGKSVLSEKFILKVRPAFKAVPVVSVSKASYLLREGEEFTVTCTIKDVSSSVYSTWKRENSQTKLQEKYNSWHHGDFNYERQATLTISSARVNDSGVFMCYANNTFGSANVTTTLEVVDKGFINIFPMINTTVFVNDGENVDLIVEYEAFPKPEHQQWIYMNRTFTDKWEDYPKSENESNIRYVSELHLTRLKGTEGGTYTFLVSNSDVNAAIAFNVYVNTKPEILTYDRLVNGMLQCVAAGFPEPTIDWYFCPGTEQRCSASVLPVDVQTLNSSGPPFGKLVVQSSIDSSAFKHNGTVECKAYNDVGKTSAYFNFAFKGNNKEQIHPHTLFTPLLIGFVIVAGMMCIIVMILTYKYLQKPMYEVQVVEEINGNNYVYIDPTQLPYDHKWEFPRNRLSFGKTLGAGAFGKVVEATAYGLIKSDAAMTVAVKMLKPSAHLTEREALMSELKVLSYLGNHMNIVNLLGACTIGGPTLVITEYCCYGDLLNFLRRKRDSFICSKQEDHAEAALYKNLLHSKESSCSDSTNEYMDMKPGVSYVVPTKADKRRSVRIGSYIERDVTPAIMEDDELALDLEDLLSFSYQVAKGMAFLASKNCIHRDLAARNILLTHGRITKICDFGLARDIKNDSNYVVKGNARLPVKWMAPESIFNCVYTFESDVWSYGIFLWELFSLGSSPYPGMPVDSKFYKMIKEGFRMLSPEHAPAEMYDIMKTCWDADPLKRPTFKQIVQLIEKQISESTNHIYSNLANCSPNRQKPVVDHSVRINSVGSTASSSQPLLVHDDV
Method: as §1, §2, §3

[3] = target: T3, BAF3 FL KIT EX11DEL/T670I (Homo sapiens, UniProt P10721, T670I, cells depend on it, form not given)
T3 construct: BAF3 FL KIT EX11DEL/T670I
T3 sequence (P10721 with tags, fused parts or gaps DEL557-558/T670I, form open): as the sequence (P10721 with tags, fused parts or gaps DEL557-558) above, with T668I counted along it
Method: as §1, §2, §3

[4] = target: T4, BAF3 FL KIT EX11DEL/V654A (Homo sapiens, UniProt P10721, V654A, cells depend on it, form not given)
T4 construct: BAF3 FL KIT EX11DEL/V654A
T4 sequence (P10721 with tags, fused parts or gaps DEL557-558/V654A, form open): as the sequence (P10721 with tags, fused parts or gaps DEL557-558) above, with V652A counted along it
Method: as §1, §2, §3

T1 sequence (P10721 with tags, fused parts or gaps DEL557-558/D816H, form open): as the sequence (P10721 with tags, fused parts or gaps DEL557-558) above, with D814H counted along it

Compound | GI50 [1] [nM] | GI50 [2] [nM] | GI50 [3] [nM] | GI50 [4] [nM]
Cc1ccc(C(=O)Nc2cc(C(F)(F)F)ccn2)cc1C#Cc1cnc(NC(=O)NCc2ccncc2)s1 [I-26, 4-methyl-3-((2-(3-(pyridin-4-ylmethyl)ureido)thiazol-5-yl)ethynyl)-N-(4-(trifluoromethyl)pyridin-2-yl)benzamide] | 10 to 50 | 10 to 50 | 10 to 50 | 10 to 50
Cc1ccc(C(=O)Nc2cc(C(F)(F)F)ccn2)cc1C#Cc1cnc(NC(=O)N2CCOC(CN(C)C)C2)s1 (stereo not drawn) [I-34, 2-((dimethylamino)methyl)-N-(5-((2-methyl-5-((4-(trifluoromethyl)pyridin-2-yl)carbamoyl)phenyl)ethynyl)thiazol-2-yl)morpholine-4-carboxamide] | 10 to 50 | < 10 | 10 to 50 | 10 to 50
Cc1ccc(C(=O)Nc2cc(C(F)(F)F)ccn2)cc1C#Cc1cnc(NC(=O)C2CC2)s1 [I-49, 3-((2-(cyclopropanecarboxamido)thiazol-5-yl)ethynyl)-4-methyl-N-(4-(trifluoromethyl)pyridin-2-yl)benzamide] | 10 to 50 | < 10 | 10 to 50 | 10 to 50
Cc1ccc(NC(=O)c2cc(C(F)(F)F)ccn2)cc1C#Cc1cnc(NC(=O)N(C)CCN(C)C)s1 [I-58, N-(3-((2-(3-(2-(dimethylamino)ethyl)-3-methylureido)thiazol-5-yl)ethynyl)-4-methylphenyl)-4-(trifluoromethyl)picolinamide] | 50 to 100 | < 10 | 100 to 10000 | 50 to 100
CNC(=O)Nc1ncc(C#Cc2cc(C(=O)Nc3cc(C(F)(F)F)ccn3)ccc2C)s1 [I-4, 4-methyl-3-((2-(3-methylureido)thiazol-5-yl)ethynyl)-N-(4-(trifluoromethyl)pyridin-2-yl)benzamide] | < 10 | < 10 | < 10 | 10 to 50
CCN(C)C(=O)Nc1ncc(C#Cc2cc(C(=O)Nc3cc(C(F)(F)F)ccn3)ccc2C)s1 [I-8, 3-((2-(3-ethyl-3-methylureido)thiazol-5-yl)ethynyl)-4-methyl-N-(4-(trifluoromethyl)pyridin-2-yl)benzamide] | < 10 | < 10 | < 10 | 10 to 50
Cc1ccc(C(=O)Nc2cc(C(F)(F)F)ccn2)cc1C#Cc1cnc(NC(=O)C(C)(C)C)s1 [I-52, 4-methyl-3-((2-pivalamidothiazol-5-yl)ethynyl)-N-(4-(trifluoromethyl)pyridin-2-yl)benzamide] | 100 to 10000 | 10 to 50 | 100 to 10000 | 100 to 10000
Cc1ccc(C(=O)Nc2cc(C(F)(F)F)ccn2)cc1C#Cc1cnc(NC(=O)NCCCN)s1 [I-36, 3-((2-(3-(3-aminopropyl)ureido)thiazol-5-yl)ethynyl)-4-methyl-N-(4-(trifluoromethyl)pyridin-2-yl)benzamide] | 10 to 50 | < 10 | 10 to 50 | 10 to 50
Cc1ccc(NC(=O)c2cc(C(F)(F)F)ccn2)cc1C#Cc1cnc(NC(=O)N(C)CCN2CCN(C)CC2)s1 [I-55, N-(4-methyl-3-((2-(3-methyl-3-(2-(4-methylpiperazin-1-yl)ethyl)ureido)thiazol-5-yl)ethynyl)phenyl)-4-(trifluoromethyl)picolinamide] | 10 to 50 | – | 50 to 100 | 10 to 50
Cc1ccc(C(=O)Nc2cc(C(F)(F)F)ccn2)cc1C#Cc1cnc(NC(=O)N2CCC(C)CC2)s1 [I-25, 4-methyl-N-(5-((2-methyl-5-((4-(trifluoromethyl)pyridin-2-yl)carbamoyl)phenyl)ethynyl)thiazol-2-yl)piperidine-1-carboxamide] | 10 to 50 | 10 to 50 | 10 to 50 | 10 to 50
Cc1ccc(C(=O)Nc2cc(C(F)(F)F)ccn2)cc1C#Cc1cnc(NC(=O)N(C)CCO)s1 [I-10, 3-((2-(3-(2-hydroxyethyl)-3-methylureido)thiazol-5-yl)ethynyl)-4-methyl-N-(4-(trifluoromethyl)pyridin-2-yl)benzamide] | < 10 | < 10 | < 10 | < 10
Cc1ccc(C(=O)Nc2cc(C(F)(F)F)ccn2)cc1C#Cc1cnc(NC(=O)NCCN2CCN(C)CC2)s1 [I-14, 4-methyl-3-((2-(3-(2-(4-methylpiperazin-1-yl)ethyl)ureido)thiazol-5-yl)ethynyl)-N-(4-(trifluoromethyl)pyridin-2-yl)benzamide] | 10 to 50 | < 10 | 10 to 50 | 10 to 50
Cc1ccc(C(=O)Nc2cc(C(F)(F)F)ccn2)cc1C#Cc1cnc(NC(=O)NCCN2CCOCC2)s1 [I-6, 4-methyl-3-((2-(3-(2-morpholinoethyl)ureido)thiazol-5-yl)ethynyl)-N-(4-(trifluoromethyl)pyridin-2-yl)benzamide] | 10 to 50 | < 10 | 10 to 50 | 10 to 50
Cc1ccc(C(=O)Nc2cc(C(F)(F)F)ccn2)cc1C#Cc1cnc(NC(=O)N2CCN(CCO)CC2)s1 [I-27, 4-(2-hydroxyethyl)-N-(5-((2-methyl-5-((4-(trifluoromethyl)pyridin-2-yl)carbamoyl)phenyl)ethynyl)thiazol-2-yl)piperazine-1-carboxamide] | 10 to 50 | < 10 | < 10 | 10 to 50
COCCN(C)C(=O)Nc1ncc(C#Cc2cc(C(=O)Nc3ccc(CN4CCCC4)c(C(F)(F)F)c3)ccc2C)s1 [I-46, 3-((2-(3-(2-methoxyethyl)-3-methylureido)thiazol-5-yl)ethynyl)-4-methyl-N-(4-(pyrrolidin-1-ylmethyl)-3-(trifluoromethyl)phenyl)benzamide] | 10 to 50 | 10 to 50 | 10 to 50 | 50 to 100
Cc1ccc(NC(=O)c2cccc(OC(F)(F)F)c2)cc1C#Cc1cnc(NC(=O)N(C)C)s1 [I-56, N-(3-((2-(3,3-dimethylureido)thiazol-5-yl)ethynyl)-4-methylphenyl)-3-(trifluoromethoxy)benzamide] | 10 to 50 | < 10 | 10 to 50 | 10 to 50
COCCN(C)C(=O)Nc1ncc(C#Cc2cc(NC(=O)c3cc(C(F)(F)F)ccn3)ccc2F)s1 [I-62, N-(4-fluoro-3-((2-(3-(2-methoxyethyl)-3-methylureido)thiazol-5-yl)ethynyl)phenyl)-4-(trifluoromethyl)picolinamide] | 10 to 50 | < 10 | < 10 | 10 to 50
Cc1ccc(C(=O)Nc2cc(C(F)(F)F)ccn2)cc1C#Cc1cnc(NC(=O)N2CCNCC2)s1 [I-30, N-(5-((2-methyl-5-((4-(trifluoromethyl)pyridin-2-yl)carbamoyl)phenyl)ethynyl)thiazol-2-yl)piperazine-1-carboxamide] | 10 to 50 | < 10 | 10 to 50 | 10 to 50
Cc1ccc(C(=O)Nc2cc(C(F)(F)F)ccn2)cc1C#Cc1cnc(NC(=O)NCCN(C)C)s1 [I-11, 3-((2-(3-(2-(dimethylamino)ethyl)ureido)thiazol-5-yl)ethynyl)-4-methyl-N-(4-(trifluoromethyl)pyridin-2-yl)benzamide] | 10 to 50 | < 10 | 10 to 50 | 10 to 50
COCCN(C)C(=O)Nc1ncc(C#Cc2cccc(NC(=O)c3cc(C(F)(F)F)ccn3)c2)s1 [I-61, N-(3-((2-(3-(2-methoxyethyl)-3-methylureido)thiazol-5-yl)ethynyl)phenyl)-4-(trifluoromethyl)picolinamide] | 10 to 50 | < 10 | 10 to 50 | 10 to 50
Cc1ccc(C(=O)Nc2cc(C(F)(F)F)ccn2)cc1C#Cc1cnc(NC(=O)N(C)CC2CCCN2C)s1 (stereo not drawn) [I-20, 4-methyl-3-((2-(3-methyl-3-((1-methylpyrrolidin-2-yl)methyl)ureido)thiazol-5-yl)ethynyl)-N-(4-(trifluoromethyl)pyridin-2-yl)benzamide] | 10 to 50 | < 10 | 10 to 50 | 10 to 50
Cc1ccc(C(=O)Nc2cc(C(F)(F)F)ccn2)cc1C#Cc1cnc(NC(=O)N2CCC(N3CCN(C)CC3)CC2)s1 [I-41, N-(5-((2-methyl-5-((4-(trifluoromethyl)pyridin-2-yl)carbamoyl)phenyl)ethynyl)thiazol-2-yl)-4-(4-methylpiperazin-1-yl)piperidine-1-carboxamide] | 10 to 50 | < 10 | 10 to 50 | 10 to 50
Cc1ccc(NC(=O)c2cc(C(F)(F)F)ccn2)cc1C#Cc1cnc(NC(=O)N(C)C2CCN(C)CC2)s1 [I-53, N-(4-methyl-3-((2-(3-methyl-3-(I-methylpiperidin-4-yl)ureido)thiazol-5-yl)ethynyl)phenyl)-4-(trifluoromethyl)picolinamide] | 10 to 50 | – | 50 to 100 | 10 to 50

Source: patent US11753404B2, “Aminothiazole compounds as c-Kit inhibitors” (Ariad Pharmaceuticals, Inc., priority 2016, dated 2023)
